molecular target: T1, KCNT1 (KNa1.1, Slack) (Homo sapiens, UniProt Q5JUK3); test: KCNT1 patch clamp assay (SyncroPatch 384PE automated patch clamp); type: cell-based; details: tetracycline inducible HEK-TREX cell line; perforated patch; step from −80 mV to 0 mV; room temperature; read-out: KCNT1-WT IC50
T1 construct: expressed in transfected cells; host or cells: HEK-TREX (tetracycline-inducible HEK cell line)
T1 sequence (Q5JUK3 1-1230): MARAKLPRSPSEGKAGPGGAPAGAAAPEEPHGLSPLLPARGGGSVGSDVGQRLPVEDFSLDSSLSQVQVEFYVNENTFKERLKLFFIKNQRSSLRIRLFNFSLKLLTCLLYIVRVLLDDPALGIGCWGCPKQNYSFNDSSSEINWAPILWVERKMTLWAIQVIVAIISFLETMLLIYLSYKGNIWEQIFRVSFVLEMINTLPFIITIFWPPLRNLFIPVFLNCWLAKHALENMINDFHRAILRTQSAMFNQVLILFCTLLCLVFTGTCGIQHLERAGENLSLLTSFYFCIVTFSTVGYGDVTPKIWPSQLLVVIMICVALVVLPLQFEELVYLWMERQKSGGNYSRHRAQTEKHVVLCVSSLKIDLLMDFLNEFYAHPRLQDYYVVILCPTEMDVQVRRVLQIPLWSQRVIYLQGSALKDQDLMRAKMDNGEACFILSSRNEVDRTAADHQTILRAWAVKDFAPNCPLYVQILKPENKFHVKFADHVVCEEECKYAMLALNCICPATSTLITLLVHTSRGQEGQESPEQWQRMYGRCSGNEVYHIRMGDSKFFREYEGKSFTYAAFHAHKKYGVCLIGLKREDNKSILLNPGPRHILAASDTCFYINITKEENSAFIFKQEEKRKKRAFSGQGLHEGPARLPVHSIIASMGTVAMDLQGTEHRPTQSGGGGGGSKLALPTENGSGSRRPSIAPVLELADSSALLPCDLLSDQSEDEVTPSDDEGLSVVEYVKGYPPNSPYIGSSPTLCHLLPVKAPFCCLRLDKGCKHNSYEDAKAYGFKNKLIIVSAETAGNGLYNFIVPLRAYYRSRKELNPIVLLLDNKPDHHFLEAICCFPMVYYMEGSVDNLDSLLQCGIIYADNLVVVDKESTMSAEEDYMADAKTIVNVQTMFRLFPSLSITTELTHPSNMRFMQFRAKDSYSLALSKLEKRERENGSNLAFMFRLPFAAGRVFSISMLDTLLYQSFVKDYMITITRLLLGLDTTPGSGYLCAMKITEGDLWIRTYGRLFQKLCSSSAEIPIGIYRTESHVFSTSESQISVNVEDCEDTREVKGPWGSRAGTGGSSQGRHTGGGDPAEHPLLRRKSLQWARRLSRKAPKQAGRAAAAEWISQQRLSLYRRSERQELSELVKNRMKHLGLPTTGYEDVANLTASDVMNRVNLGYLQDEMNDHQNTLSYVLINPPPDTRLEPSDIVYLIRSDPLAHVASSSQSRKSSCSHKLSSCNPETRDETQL
Experimental: KCNT1—Patch Clamp Assay Inhibition of KCNT1 (KNa1.1, Slack) was evaluated using a tetracycline inducible cell line (HEK-TREX). Currents were recorded using the SyncroPatch 384PE automated, patch clamp system. Pulse generation and data collection were performed with PatchController384 V1.3.0 and DataController384 V1.2.1 (Nanion Technologies). The access resistance and apparent membrane capacitance were estimated using built-in protocols. Current were recorded in perforated patch mode (10 μM escin) from a population of cells. […] The cells were allowed to recover in the cell hotel prior to experimentation. Currents were recorded at room temperature. […] The extracellular solution was used as the wash, reference and compound delivery solution. […] Escin is made at a 5 mM stock in water, aliquoted, and stored at −20° C. The compound plate was created at 2× concentrated in the extracellular solution. The compound was diluted to 1:2 when added to the recording well. The amount of DMSO in the extracellular solution was held constant at the level used for the highest tested concentration. A holding potential of −80 mV with a 100 ms step to 0 mV was used. […] The average mean current from 3 sweeps was calculated and the % inhibition of each compound was calculated. The % Inhibition as a function of the compound concentration was fit with a Hill equation to derive IC50, slope, min and max parameters.

| IC50 [µM] | Compound |
| --- | --- |
| 1 to 20 | CN(C)C(=O)C[C@@H](NC(=O)c1cc(C(F)(F)F)nn1C)c1nc(-c2cccc(F)c2)no1 (single isomer, unassigned) [Compound 135] |
| 1 to 20 | CN(C)C(=O)C[C@H](NC(=O)c1cc(C(F)(F)F)nn1C)c1nc(-c2cccc(F)c2)no1 (single isomer, unassigned) [Compound 136] |
| ≥ 20 | Cn1nc(C(F)(F)F)cc1C(=O)N[C@H](CCS(C)(=O)=O)c1nc(-c2cccc(F)c2)no1 (single isomer, unassigned) [Compound 143] |
| 1 to 20 | Cn1nc(C(F)(F)F)cc1C(=O)N[C@@H](CCS(C)(=O)=O)c1nc(-c2cccc(F)c2)no1 (single isomer, unassigned) [Compound 144] |
| ≤ 1 | C[C@H](NC(=O)c1cc(C(F)(F)F)nn1C)c1nc(-c2ccnc(N3CCCCC3)c2)no1 (single isomer, unassigned) [Compound 209] |
| ≤ 1 | CC(NC(=O)c1cc(C(F)(F)F)nn1C)c1nc(-c2ccnc(N3CCCCC3)c2)no1 (single isomer, unassigned) [Compound 210] |
| ≤ 1 | C[C@H](NC(=O)c1cc(C(F)(F)F)nn1C)c1nc(-c2ccnc(C3CCC3)c2)no1 (single isomer, unassigned) [Compound 278] |
| ≤ 1 | CC(NC(=O)c1cc(C(F)(F)F)nn1C)c1nc(-c2ccnc(C3CCC3)c2)no1 (single isomer, unassigned) [Compound 279] |
| ≤ 1 | CC(NC(=O)c1cc(C2CC2)nn1C)c1nc(-c2cccc(F)c2)no1 (stereo not shown) [Compound 5] |
| ≤ 1 | CC(NC(=O)c1cc(C2CC2)nn1C)c1nc(-c2cccc(Cl)c2)no1 (stereo not shown) [Compound 6] |
| ≥ 20 | CC(NC(=O)c1cc(C2CC2)nn1C)c1nc(-c2c(F)cccc2F)no1 (stereo not shown) [Compound 7] |
| 1 to 20 | CC(NC(=O)c1cc(C2CC2)nn1C)c1nc(-c2ccc(F)cc2)no1 (stereo not shown) [Compound 8] |
| ≤ 1 | CC(NC(=O)c1cc(C2CC2)nn1C)c1nc(-c2ccc(Cl)cc2)no1 (stereo not shown) [Compound 9] |
| ≤ 1 | Cc1cccc(-c2noc(C(C)NC(=O)c3cc(C(C)C)nn3C)n2)c1 (stereo not shown) [Compound 10] |
| 1 to 20 | Cc1cccc(-c2noc(C(C)NC(=O)c3cc(C)nn3C(C)(C)C)n2)c1 (stereo not shown) [Compound 11] |
| ≤ 1 | CC(NC(=O)c1cc(C2CC2)nn1C)c1nc(-c2cccc(C(F)(F)F)c2)no1 (stereo not shown) [Compound 12] |
| ≤ 1 | Cc1cccc(-c2noc(C(C)NC(=O)c3cc(C(C)(C)C)nn3C)n2)c1 (stereo not shown) [Compound 13] |
| ≤ 1 | Cc1cccc(-c2noc(C(C)NC(=O)c3cc(C(F)F)nn3C)n2)c1 (stereo not shown) [Compound 21] |
| ≤ 1 | Cc1cccc(-c2noc(C(C)NC(=O)c3cc(C)nn3C(C)C)n2)c1 (stereo not shown) [Compound 22] |
| ≤ 1 | Cc1cccc(-c2noc(C(C)NC(=O)c3cc(C)nn3C(F)F)n2)c1 (stereo not shown) [Compound 33] |
| ≤ 1 | CC(C)C(NC(=O)c1cc(C2CC2)nn1C)c1nc(-c2cccc(F)c2)no1 (stereo not shown) [Compound 45] |
| ≤ 1 | CCC(NC(=O)c1cc(C2CC2)nn1C)c1nc(-c2cccc(F)c2)no1 (stereo not shown) [Compound 48] |
| 1 to 20 | Cn1nc(C2CC2)cc1C(=O)NC(Cc1ccccc1)c1nc(-c2cccc(F)c2)no1 (stereo not shown) [Compound 49] |
| 1 to 20 | Cn1nc(C2CC2)cc1C(=O)NC(C)(C)c1nc(-c2cccc(F)c2)no1 [Compound 50] |
| 1 to 20 | Cn1nc(C2CC2)cc1C(=O)NC(c1ccccc1)c1nc(-c2cccc(F)c2)no1 (stereo not shown) [Compound 51] |
| ≥ 20 | Cn1nc(C2CC2)cc1C(=O)NC(CO)c1nc(-c2cccc(F)c2)no1 (stereo not shown) [Compound 54] |
| 1 to 20 | Cc1cccc(-c2noc(C(C)NC(=O)c3c(C)cnn3C(C)C)n2)c1 (stereo not shown) [Compound 55] |
| 1 to 20 | Cn1nc(C2CC2)cc1C(=O)NC(COCc1ccccc1)c1nc(-c2cccc(F)c2)no1 (stereo not shown) [Compound 58, N-[2-benzyloxy-1-[3-(3-fluorophenyl)-1,2,4-oxadiazol-5-yl]ethyl]-5-cyclopropyl-2-methyl-pyrazole-3-carboxamide] |

| IC50 [µM] | Compound |
| --- | --- |
| ≥ 20 | Cc1cccc(-c2noc(C(C)NC(=O)c3cnn(C(C)C)c3C)n2)c1 (stereo not shown) [Compound 59] |
| ≤ 1 | CC[C@H](NC(=O)c1cc(C2CC2)nn1C)c1nc(-c2cccc(F)c2)no1 [Compound 60] |
| ≤ 1 | CC[C@@H](NC(=O)c1cc(C2CC2)nn1C)c1nc(-c2cccc(F)c2)no1 [Compound 61] |
| 1 to 20 | CC(C)[C@@H](NC(=O)c1cc(C2CC2)nn1C)c1nc(-c2cccc(F)c2)no1 [Compound 62] |
| ≤ 1 | CC(C)[C@H](NC(=O)c1cc(C2CC2)nn1C)c1nc(-c2cccc(F)c2)no1 [Compound 63] |
| ≤ 1 | Cn1nc(C2CC2)cc1C(=O)NC1(c2nc(-c3cccc(F)c3)no2)CCCCC1 [Compound 66] |
| ≤ 1 | CC(NC(=O)c1cc(C(F)(F)F)nn1C)c1nc(-c2ccc(F)c(F)c2)no1 (stereo not shown) [Compound 67] |
| ≤ 1 | COCC(NC(=O)c1cc(C(F)(F)F)nn1C)c1nc(-c2cccc(C)c2)no1 (stereo not shown) [Compound 72] |
| ≤ 1 | CC(NC(=O)c1cc(C(F)(F)F)nn1C(F)F)c1nc(-c2cccc(Cl)c2)no1 (stereo not shown) [Compound 73] |
| ≤ 1 | CC(NC(=O)c1cc(C(F)(F)F)nn1C)c1nc(-c2ccc(Cl)cc2Cl)no1 (stereo not shown) [Compound 75] |
| ≥ 20 | Cc1nn(C(C)C)cc1C(=O)N[C@@H](C)c1nc(-c2cccc(C#N)c2)no1 [Compound 85] |
| ≤ 1 | Cc1nn(C(C)C)cc1C(=O)N[C@@H](C)c1nc(-c2ccc(Cl)c(F)c2)no1 [Compound 86] |
| 1 to 20 | Cc1nn(C(C)C)cc1C(=O)N[C@@H](C)c1nc(-c2ccc(F)c(F)c2)no1 [Compound 87] |
| 1 to 20 | Cc1nn(C(C)C)cc1C(=O)N[C@@H](C)c1nc(-c2ccc(F)c(Cl)c2)no1 [Compound 88] |
| ≤ 1 | Cc1nn(C(C)C)cc1C(=O)N[C@@H](C)c1nc(-c2cccc(C(F)(F)F)c2)no1 [Compound 89] |
| 1 to 20 | Cc1nn(C(C)C)cc1C(=O)N[C@@H](C)c1nc(-c2ccc(F)cc2)no1 [Compound 90] |
| ≤ 1 | Cc1nn(C(C)C)cc1C(=O)N[C@@H](C)c1nc(-c2cc(F)cc(Cl)c2)no1 [Compound 91] |
| ≤ 1 | Cc1nn(C(C)C)cc1C(=O)N[C@@H](C)c1nc(-c2cc(F)cc(F)c2)no1 [Compound 92] |
| 1 to 20 | Cc1nn(C(C)C)cc1C(=O)N[C@@H](C)c1nc(-c2cccc(F)c2)no1 [Compound 95] |
| ≤ 1 | Cc1nn(C(C)C)cc1C(=O)NC(C)c1nc(-c2cccc(Cl)c2)no1 (stereo not shown) [Compound 96] |
| ≤ 1 | Cc1nn(C(C)C)cc1C(=O)NC(C)c1nc(-c2ccc(Cl)cc2)no1 (stereo not shown) [Compound 97] |
| 1 to 20 | Cc1nn(C(C)C)cc1C(=O)NC(C)c1nc(-c2ccc(C(F)(F)F)cc2)no1 (stereo not shown) [Compound 98] |
| 1 to 20 | Cc1nn(C(C)C)cc1C(=O)NC(C)c1nc(-c2ccc(OC(F)(F)F)cc2)no1 (stereo not shown) [Compound 99] |
| 1 to 20 | Cc1nn(C(C)C)cc1C(=O)N[C@@H](C)c1nc(-c2cccc(OC(F)(F)F)c2)no1 [Compound 100] |
| 1 to 20 | Cc1nn(C(C)C)cc1C(=O)NC(C)c1nc(-c2cccc(OC(F)F)c2)no1 (stereo not shown) [Compound 101] |
| ≤ 1 | CC(NC(=O)c1cc(C(F)(F)F)nn1C)c1nc(-c2cc(F)cc(F)c2)no1 (stereo not shown) [Compound 103] |
| 1 to 20 | C[C@H](NC(=O)c1cc(C(F)(F)F)nn1C)c1nc(-c2cccc(C#N)c2)no1 [Compound 104] |

— US20220259193A1, “KCNT1 INHIBITORS AND METHODS OF USE” (Praxis Precision Medicines, Inc., priority 2019, published 2022)
